Laboratory results published in the NIST ThermoML archive (doi:10.1021/je900124n).
“And” between values parts separate entries of the source, which are not always exact repeats. Equal values may be shown once. ± gives the expanded uncertainty stated by the source.

Conditions: Fluid (supercritical or subcritical phases), Buoyancy - hydrostatic balance with magnetic suspension - two sinkers

CCC [propane]
Conditions | mass density
330 K, 278.72 kPa | 4.6293 ± 0.0029 kg/m3 [middle of 4 runs]
330 K, 492.57 kPa | 8.4128 ± 0.0033 kg/m3 and 8.4127 ± 0.0033 kg/m3
330 K, 492.58 kPa | 8.4128 ± 0.0033 kg/m3 and 8.4127 ± 0.0033 kg/m3
330 K, 817.85 kPa | 14.6343 ± 0.0041 kg/m3
330 K, 817.86 kPa | 14.6347 ± 0.0041 kg/m3 and 14.6346 ± 0.0041 kg/m3 and 14.6343 ± 0.0041 kg/m3
330 K, 817.87 kPa | 14.6348 ± 0.0041 kg/m3
330 K, 1346.8 kPa | 26.4281 ± 0.034 kg/m3
330 K, 1347 kPa | 26.4322 ± 0.034 kg/m3
330 K, 1347.2 kPa | 26.4396 ± 0.034 kg/m3
330 K, 1347.3 kPa | 26.4407 ± 0.034 kg/m3 and 26.4409 ± 0.034 kg/m3
330 K, 1714.5 kPa | 36.5728 ± 0.039 kg/m3 [middle of 5 runs]
335 K, 1765.2 kPa | 36.7322 ± 0.25 kg/m3 and 36.7333 ± 0.25 kg/m3 and 36.7309 ± 0.25 kg/m3
335 K, 1765.3 kPa | 36.7327 ± 0.25 kg/m3 and 36.733 ± 0.25 kg/m3
340 K, 287.12 kPa | 4.6188 ± 0.0029 kg/m3 and 4.6185 ± 0.0029 kg/m3
340 K, 287.13 kPa | 4.6186 ± 0.0029 kg/m3
340 K, 508.31 kPa | 8.392 ± 0.0033 kg/m3 and 8.3919 ± 0.0033 kg/m3
340 K, 508.32 kPa | 8.3921 ± 0.0033 kg/m3
340 K, 508.33 kPa | 8.3921 ± 0.0033 kg/m3
340 K, 846.05 kPa | 14.5839 ± 0.0041 kg/m3
340 K, 846.06 kPa | 14.584 ± 0.0041 kg/m3 and 14.5839 ± 0.0041 kg/m3
340 K, 846.07 kPa | 14.5839 ± 0.0041 kg/m3
340 K, 1352.2 kPa | 25.1571 ± 0.032 kg/m3
340 K, 1352.4 kPa | 25.1613 ± 0.032 kg/m3 and 25.1637 ± 0.032 kg/m3
340 K, 1352.5 kPa | 25.161 ± 0.032 kg/m3
340 K, 1352.7 kPa | 25.168 ± 0.032 kg/m3
340 K, 1816.9 kPa | 36.9173 ± 0.043 kg/m3
340 K, 1817.1 kPa | 36.9239 ± 0.043 kg/m3 and 36.9243 ± 0.043 kg/m3
340 K, 2355.2 kPa | 55.4656 ± 0.27 kg/m3
340 K, 2355.4 kPa | 55.4825 ± 0.27 kg/m3 and 55.4906 ± 0.27 kg/m3
340 K, 2355.5 kPa | 55.5083 ± 0.27 kg/m3
340 K, 2355.8 kPa | 55.4793 ± 0.27 kg/m3
340 K, 3925.4 kPa | 425.071 ± 0.072 kg/m3 and 425.069 ± 0.072 kg/m3
340 K, 3925.5 kPa | 425.072 ± 0.072 kg/m3
340 K, 3925.6 kPa | 425.073 ± 0.072 kg/m3 and 425.071 ± 0.072 kg/m3 and 425.072 ± 0.072 kg/m3
340 K, 3925.7 kPa | 425.072 ± 0.072 kg/m3 and 425.071 ± 0.072 kg/m3
340 K, 3925.8 kPa | 425.071 ± 0.072 kg/m3 and 425.072 ± 0.072 kg/m3
340 K, 8053.4 kPa | 448.649 ± 0.055 kg/m3
340 K, 8053.5 kPa | 448.65 ± 0.055 kg/m3
340 K, 8053.6 kPa | 448.651 ± 0.055 kg/m3
340 K, 8053.8 kPa | 448.649 ± 0.055 kg/m3
340 K, 8054.1 kPa | 448.649 ± 0.055 kg/m3
340 K, 12040 kPa | 464.072 ± 0.057 kg/m3 and 464.071 ± 0.057 kg/m3
340 K, 12041 kPa | 464.071 ± 0.057 kg/m3
340 K, 16069 kPa | 476.246 ± 0.058 kg/m3 and 476.247 ± 0.058 kg/m3 and 476.248 ± 0.058 kg/m3
340 K, 16070 kPa | 476.248 ± 0.058 kg/m3
340 K, 19781 kPa | 485.636 ± 0.059 kg/m3
340 K, 19783 kPa | 485.642 ± 0.059 kg/m3 and 485.644 ± 0.059 kg/m3
340 K, 19784 kPa | 485.647 ± 0.059 kg/m3 [middle of 4 runs]
340 K, 19785 kPa | 485.649 ± 0.059 kg/m3
340 K, 19943 kPa | 485.999 ± 0.059 kg/m3
340 K, 19946 kPa | 486.007 ± 0.059 kg/m3 and 486.009 ± 0.059 kg/m3 and 486.006 ± 0.059 kg/m3
340 K, 19947 kPa | 486.007 ± 0.059 kg/m3
340 K, 23981 kPa | 494.781 ± 0.06 kg/m3 and 494.78 ± 0.06 kg/m3
340 K, 23982 kPa | 494.781 ± 0.06 kg/m3
340 K, 29812 kPa | 505.708 ± 0.061 kg/m3
340 K, 29815 kPa | 505.714 ± 0.061 kg/m3
340 K, 29816 kPa | 505.715 ± 0.061 kg/m3 and 505.712 ± 0.061 kg/m3
340 K, 29817 kPa | 505.713 ± 0.061 kg/m3
